Experimental data published in patent US11084795B2, “CFTR regulators and methods of use thereof” (The Regents of the University of California, priority 2015, dated 2021).
“Also recorded” adds a separate entry of the source.

How the values were obtained:
[1] = Pharmacokinetics in mice (plasma LC/MS); assay type: in vivo, mouse
Experimental: (§1) Blood was collected at 15, 30, 60, 150, 240 and 360 min after treatment by orbital puncture and centrifuged at 5000 rpm for 15 min to separate plasma. Plasma samples (60 μL) were mixed with 300 μL acetonitrile and centrifuged at 13000 rpm for 20 min, and 90 μL of the supernatant was used for LC/MS. The solvent system consisted of a linear gradient from 5 to 95% acetonitrile over 16 min (0.2 ml/min flow). Mass spectra was acquired on a mass spectrometer (Waters 2695 and Micromass ZQ) using electrospray (+) ionization, mass ranging from 100 to 1500 Da, cone voltage 40 V. Calibration standards were prepared in plasma from untreated mice to which known amounts of CFTRact-J027 were added.
as §1, with “Pharmacokinetics. […] Blood” for “Blood”

[2] = tested on: enteroids generated from normal human duodenum and jejunum; test: Swelling measurements in human enteroids; assay type: cell-based; settings: pretreatment 10 min, with 0.1 or 0.2 μM forskolin
Experimental: Tissues from human subjects were obtained under approval of the Johns Hopkins University School of Medicine Institutional Review Board (protocol NA_00038329). Duodenal and jejunal biopsy specimens were obtained from adults during routine endoscopy at Johns Hopkins Hospital. Crypt isolation, enteroid propagation and culture were as described (16). For swelling measurements enteroids were seeded in 35-mm dishes with bottom coverglass with 1.5 mL media. On the day of the experiment the media was replaced with 3 mL Advanced DMEM/F12 and enteroids were incubated with 1 mM calcein greenacetoxymethyl ester for 1 h at 37° C. to label cytoplasm. Relative enteroid volume following addition of specified concentrations of forskolin was measured using a laser scanning confocal microscope (Fluoview FV10i-LIV; Olympus) at 37° C., 5% CO2, and 95% relative humidity. In some studies CFTRact-J027 was added 10 min prior to forskolin. Images were acquired every 10 min and analyzed with MetaMorph version 7.7 software (Olympus) to quantify enteroid areas.

[3] = target: T1, human wildtype CFTR (Homo sapiens, UniProt P13569); test: Patch-clamp (whole-cell and inside-out) in FRT cells expressing human wildtype CFTR; assay type: cell-based; parameters: expressed in transfected cells
T1 sequence (P13569 whole entry): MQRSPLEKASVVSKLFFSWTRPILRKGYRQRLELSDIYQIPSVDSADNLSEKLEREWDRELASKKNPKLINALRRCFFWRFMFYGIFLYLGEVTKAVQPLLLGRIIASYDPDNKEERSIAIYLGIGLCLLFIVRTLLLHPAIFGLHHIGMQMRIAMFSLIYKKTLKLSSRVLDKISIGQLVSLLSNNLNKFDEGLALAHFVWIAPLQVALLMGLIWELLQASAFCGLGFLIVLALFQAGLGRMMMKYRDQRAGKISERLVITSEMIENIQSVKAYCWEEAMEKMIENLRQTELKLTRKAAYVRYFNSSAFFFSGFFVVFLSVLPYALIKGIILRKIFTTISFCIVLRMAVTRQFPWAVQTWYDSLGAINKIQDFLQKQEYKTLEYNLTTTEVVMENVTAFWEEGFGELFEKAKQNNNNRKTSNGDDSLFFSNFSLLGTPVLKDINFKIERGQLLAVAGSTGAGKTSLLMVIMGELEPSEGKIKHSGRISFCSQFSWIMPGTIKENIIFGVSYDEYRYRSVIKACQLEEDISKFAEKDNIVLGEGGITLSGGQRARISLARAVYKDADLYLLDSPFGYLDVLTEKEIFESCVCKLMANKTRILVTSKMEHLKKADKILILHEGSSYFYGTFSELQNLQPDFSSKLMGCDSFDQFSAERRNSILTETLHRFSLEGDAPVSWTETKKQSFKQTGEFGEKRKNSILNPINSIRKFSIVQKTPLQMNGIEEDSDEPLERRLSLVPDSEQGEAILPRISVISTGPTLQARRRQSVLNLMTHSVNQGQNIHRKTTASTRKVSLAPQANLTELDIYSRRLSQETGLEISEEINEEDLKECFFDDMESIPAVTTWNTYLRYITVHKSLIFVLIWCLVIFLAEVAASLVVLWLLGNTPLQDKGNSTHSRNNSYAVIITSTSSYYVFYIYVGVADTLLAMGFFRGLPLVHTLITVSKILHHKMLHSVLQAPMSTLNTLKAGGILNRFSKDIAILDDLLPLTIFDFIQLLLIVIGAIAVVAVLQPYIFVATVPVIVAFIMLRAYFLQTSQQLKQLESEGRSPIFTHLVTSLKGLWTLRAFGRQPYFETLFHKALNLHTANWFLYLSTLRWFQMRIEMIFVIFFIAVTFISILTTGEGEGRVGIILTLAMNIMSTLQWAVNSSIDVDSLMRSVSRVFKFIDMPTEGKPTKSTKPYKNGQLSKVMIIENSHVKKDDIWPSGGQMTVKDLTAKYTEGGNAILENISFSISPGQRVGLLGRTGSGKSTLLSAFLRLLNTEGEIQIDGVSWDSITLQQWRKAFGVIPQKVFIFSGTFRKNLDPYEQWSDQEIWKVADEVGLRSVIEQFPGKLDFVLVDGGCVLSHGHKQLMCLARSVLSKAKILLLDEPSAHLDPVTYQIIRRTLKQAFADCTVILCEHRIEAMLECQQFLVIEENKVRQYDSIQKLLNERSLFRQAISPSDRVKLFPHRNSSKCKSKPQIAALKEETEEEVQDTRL
Source text: The pipette (intracellular) solution contained (in mM): 120 CsCl, 10 TEA-Cl, 0.5 EGTA, 1 MgCl2, 10 Cs-HEPES, 40 mannitol, 1 ATP (7.4). For inside-out patch-clamp experiments the pipette solution contained (in mM): 150 N-methyl-D-glucamine chloride (NMDG-Cl), 3 CaCl2, 2 MgCl2, 10 Na-Hepes (pH 7.3). […] Pipette electrical resistance for both whole-cell and inside-out experiments was 3-5 MΩ. The protocol for stimulation consisted of 600-ms voltage steps from −100 to +100 mV in 20 mV increments starting from a holding potential of −60 mV. The interval between steps was 4 s. Membrane currents were filtered at 1 kHz and digitized at 5 kHz. Data were analyzed using the Igor software (Wavemetrics, Portland, Oreg.) with custom software kindly provided by Dr. Oscar Moran.

[4] = target: T1, human wildtype CFTR; test: Fluorescence plate reader assay of iodide influx in FRT cells co-expressing CFTR and YFP halide sensor; settings: synthesized compounds, full dose-response study; 125 nM forskolin

Nc1ccc([N+](=O)[O-])cc1-c1nc2ccccc2n(Cc2ccccc2)c1=O [CFTRact-J027, 3-(2-amino-5-nitrophenyl)-1-benzylquinoxalin-2(1H)-one]
serum concentration at 150 min ([1]; 10 mg/kg ip): undetectable
oral bioavailability ([1]; 10 mg/kg oral): very low bioavailability; also recorded: minimal bioavailability
serum concentration at other time points ([1]; 10 mg/kg oral): undetectable
half-life ([1]; female, CD1, mouse, serum, 10 mg/kg ip, read-out: serum elimination half-life): 16 min
concentration at 30 min ([1]; female, CD1, mouse, serum, 10 mg/kg oral): 180 nM
enteroid swelling response as % of that produced by maximal (5 μM) forskolin [2]: approximately 50%
increase of CFTR activity, whole-cell recording ([3]; 1 μM after 150 nM forskolin): more than four-fold
CFTR activity, inside-out patch ([3]; 1 μM after submaximal ATP and catalytic subunit of PKA): strongly increased CFTR activity
EC50 [4]: 200 nM
